Test results reported in patent publication US20100267561A1, “HERBICIDAL PYRIDAZINONE DERIVATIVES” (priority 2007, published 2010).

What was measured:
Type in all cases: in vivo
[1] = test system: common (oilseed) sunflower (Helianthus annuus); assay: Test B pre-/postemergence plant response; conditions: Preemergence
Source text: (§1) Seeds of plant species selected from blackgrass (Alopecurus myosuroides), downy bromegrass (Bromus tectorum), green foxtail (Setaria viridis), Italian ryegrass (Lolium multiflorum), wheat (Triticum aestivum), wild oat (Avena fatua), catchweed bedstraw (Galium aparine), bermudagrass (Cynodon dactylon), surinam grass (Brachiaria decumbens), cocklebur (Xanthium strumarium), corn (Zea mays), large crabgrass (Digitaria sanguinalis), woolly cupgrass (Eriochloa villosa), giant foxtail (Setaria faberii), goosegrass (Eleusine indica), johnsongrass (Sorghum halepense), kochia (Kochia scoparia), lambsquarters (Chenopodium album), morningglory (Ipomoea coccinea), eastern black (E.B.) nightshade (Solanum ptycanthum), yellow nutsedge (Cyperus esculentus), pigweed (Amaranthus retroflexus), common ragweed (Ambrosia elation), Russian thistle (Salsola iberica), soybean (Glycine max), common (oilseed) sunflower (Helianthus annuus), and velvetleaf (Abutilon theophrasti) were planted and treated preemergence with test chemicals formulated in a non-phytotoxic solvent mixture which included a surfactant.
(§2) At the same time, plants selected from these crop and weed species and also winter barley (Hordeum vulgare), canarygrass (Phalaris minor), chickweed (Stellaria media) and windgrass (Apera spica-venti) were treated with postemergence applications of some of the test chemicals formulated in the same manner. Plants ranged in height from 2 to 18 cm (1- to 4-leaf stage) for postemergence treatments.
(§3) Plant species in the flooded paddy test consisted of rice (Oryza sativa), umbrella sedge (Cyperus difformis), ducksalad (Heteranthera limosa) and barnyardgrass (Echinochloa crus-galli) grown to the 2-leaf stage for testing. At time of treatment, test pots were flooded to 3 cm above the soil surface, treated by application of test compounds directly to the paddy water, and then maintained at that water depth for the duration of the test. Treated plants and controls were maintained in a greenhouse for 13 to 15 days, after which time all species were compared to controls and visually evaluated. Plant response ratings, summarized in Table B, are based on a scale of 0 to 100 where 0 is no effect and 100 is complete control. A dash (-) response means no test result.

[2] = test system: downy bromegrass (Bromus tectorum); assay: Test B pre-/postemergence plant response
Source text: as §1, §2, §3

[3] = test system: eastern black (E.B.) nightshade (Solanum ptycanthum); assay: Test B pre-/postemergence plant response; conditions: Preemergence, scale 0 to 100
Source text: as §1, §2, §3

[4] = test system: giant foxtail (Setaria faberii); assay: Test B pre-/postemergence plant response
Source text: as §1, §2, §3

[5] = test system: goosegrass (Eleusine indica); assay: Test B pre-/postemergence plant response; conditions: for Goosegrass plant response rating: postemergence, 0-100 scale
Source text: as §1, §2, §3

[6] = test system: morningglory (Ipomoea coccinea); assay: Test B pre-/postemergence plant response; conditions: for Morningglory plant response rating: postemergence, 0-100 scale
Source text: as §1, §2, §3

[7] = test system: soybean (Glycine max); assay: Test B pre-/postemergence plant response; conditions: for Soybean plant response rating: postemergence, 0-100 scale
Source text: as §1, §2, §3

[8] = test system: surinam grass (Brachiaria decumbens); assay: Test B pre-/postemergence plant response; conditions: for Surinam Grass plant response rating: postemergence, 0-100 scale
Source text: as §1, §2, §3

[9] = test system: wheat (Triticum aestivum); assay: Test B pre-/postemergence plant response; conditions: for Wheat plant response rating: postemergence, 0-100 scale
Source text: as §1, §2, §3

[10] = test system: barnyardgrass (Echinochloa crus-galli); assay: Test B flooded paddy test plant response
Outline: (§4)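 Step one: raise plants to 2 leaves. Step two: flood pots 3 cm over the soil and apply compound into the water, keeping this depth. Step three: after 13–15 greenhouse days, score visually versus controls, 0–100, where 100 means complete control.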

[11] = test system: ducksalad (Heteranthera limosa); assay: Test B flooded paddy test plant response
Outline: as §4

[12] = test system: rice (Oryza sativa); assay: Test B flooded paddy test plant response
Outline: as §4

[13] = test system: umbrella sedge (Cyperus difformis); assay: Test B flooded paddy test plant response
Outline: as §4

[14] = Postemergence, 31 g ai/ha, scale 0 to 100, 0 no effect, 100 complete control
[15] = Postemergence, 62 g ai/ha, scale 0 to 100
[16] = Postemergence, 125 g ai/ha, scale 0 to 100
[17] = Preemergence, 31 g ai/ha, 0 to 100 scale, 0 no effect, 100 complete control
[18] = Preemergence, 62 g ai/ha, scale 0 to 100
[19] = Preemergence, 125 g ai/ha, scale 0 to 100
[20] = Postemergence, 250 g ai/ha, scale 0 to 100
[21] = Preemergence, 250 g ai/ha, scale 0 to 100
[22] = Flood (flooded paddy test), 62 g ai/ha, scale 0 to 100, 0 no effect, 100 complete control
[23] = Flood (flooded paddy test), 125 g ai/ha, scale 0 to 100, 0 no effect, 100 complete control
[24] = Flood (flooded paddy test), 250 g ai/ha, scale 0 to 100, 0 no effect, 100 complete control
[25] = Flood, 31 g ai/ha, scale 0 to 100
[26] = 8 g ai/ha, postemergence, 0-100 scale
[27] = Postemergence, 16 g ai/ha, scale 0 to 100
[28] = Postemergence, 31 g ai/ha, scale 0 to 100
[29] = Postemergence, 62 g ai/ha, scale 0 to 100, 0 no effect, 100 complete control

Structure (SMILES): Cc1cc(-c2ccc(Br)cc2)nn1-c1c(OC(=O)C2CC2)cnn(C)c1=O [Compound 5]
- Plant response rating, Sunflower ([1]; 31 g ai/ha, 0 to 100 scale, 0 no effect, 100 complete control): 0
- Plant response rating, Sunflower ([1]; 62 g ai/ha, scale 0 to 100): 0
- Plant response rating, Sunflower ([1]; 125 g ai/ha, scale 0 to 100): 0
- Plant response rating, Sunflower ([1]; 250 g ai/ha, scale 0 to 100): 0
- Plant response rating, Bromegrass, Downy [2, 14]: 5
- Plant response rating, Bromegrass, Downy [2, 15]: 50
- Plant response rating, Bromegrass, Downy [2, 16]: 50
- Plant response rating, Bromegrass, Downy [2, 17]: 40
- Plant response rating, Bromegrass, Downy [2, 18]: 85
- Plant response rating, Bromegrass, Downy [2, 19]: 98
- Plant response rating, Bromegrass, Downy ([2]; Preemergence, 250 g ai/ha, scale 0 to 100 (0 no effect, 100 complete control)): 100
- Plant response rating, Nightshade, E. B. ([3]; 62 g ai/ha): 0
- Plant response rating, Nightshade, E. B. ([3]; 250 g ai/ha): 100
- Plant response rating, Foxtail, Giant [4, 14]: 100
- Plant response rating, Foxtail, Giant [4, 15]: 100
- Plant response rating, Foxtail, Giant [4, 16]: 100
- Plant response rating, Foxtail, Giant [4, 20]: 100
- Plant response rating, Foxtail, Giant [4, 17]: 98
- Plant response rating, Foxtail, Giant [4, 18]: 100
- Plant response rating, Foxtail, Giant [4, 19]: 100
- Plant response rating, Foxtail, Giant [4, 21]: 100
- Plant response rating, Goosegrass [5, 14]: 95
- Plant response rating, Goosegrass [5, 15]: 95
- Plant response rating, Goosegrass [5, 16]: 100
- Plant response rating, Goosegrass [5, 20]: 100
- Plant response rating, Goosegrass [5, 17]: 75
- Plant response rating, Goosegrass [5, 18]: 100
- Plant response rating, Goosegrass [5, 19]: 100
- Plant response rating, Goosegrass [5, 21]: 100
- Plant response rating, Morningglory [6, 14]: 0
- Plant response rating, Morningglory [6, 15]: 0
- Plant response rating, Morningglory [6, 16]: 0
- Plant response rating, Morningglory [6, 20]: 0
- Plant response rating, Morningglory [6, 17]: 0
- Plant response rating, Morningglory [6, 18]: 0
- Plant response rating, Morningglory [6, 19]: 0
- Plant response rating, Morningglory [6, 21]: 0
- Plant response rating, Soybean [7, 14]: 0
- Plant response rating, Soybean [7, 15]: 50
- Plant response rating, Soybean [7, 16]: 65
- Plant response rating, Soybean [7, 20]: 70
- Plant response rating, Soybean [7, 17]: 0
- Plant response rating, Soybean [7, 18]: 0
- Plant response rating, Soybean [7, 19]: 0
- Plant response rating, Surinam Grass [8, 14]: 100
- Plant response rating, Surinam Grass [8, 15]: 100
- Plant response rating, Surinam Grass [8, 16]: 100
- Plant response rating, Surinam Grass [8, 20]: 100
- Plant response rating, Surinam Grass [8, 17]: 100
- Plant response rating, Surinam Grass [8, 18]: 100
- Plant response rating, Surinam Grass [8, 19]: 100
- Plant response rating, Surinam Grass [8, 21]: 100
- Plant response rating, Wheat [9, 14]: 90
- Plant response rating, Wheat [9, 15]: 100
- Plant response rating, Wheat [9, 16]: 100
- Plant response rating, Wheat [9, 20]: 100
- Plant response rating, Wheat [9, 17]: 30
- Plant response rating, Wheat [9, 18]: 70
- Plant response rating, Wheat [9, 19]: 95
- Plant response rating, Wheat [9, 21]: 98
- Plant response rating, Barnyardgrass [10, 22]: 50
- Plant response rating, Barnyardgrass [10, 23]: 70
- Plant response rating, Barnyardgrass [10, 24]: 90
- Plant response rating, Barnyardgrass [10, 25]: 20
- Plant response rating, Ducksalad [11, 22]: 40
- Plant response rating, Ducksalad [11, 23]: 50
- Plant response rating, Ducksalad [11, 24]: 65
- Plant response rating, Ducksalad [11, 25]: 30
- Plant response rating, Rice [12, 22]: 60
- Plant response rating, Rice [12, 23]: 75
- Plant response rating, Rice [12, 24]: 80
- Plant response rating, Rice [12, 25]: 15
- Plant response rating, Sedge, Umbrella [13, 22]: 70
- Plant response rating, Sedge, Umbrella [13, 23]: 80
- Plant response rating, Sedge, Umbrella [13, 24]: 80
- Plant response rating, Sedge, Umbrella [13, 25]: 70

Structure (SMILES): CCc1cc(-c2ccc(Br)cc2)nn1-c1c(O)cnn(CC(F)(F)F)c1=O [Compound 73]
- Bromegrass, Downy plant response rating [2, 26]: 0
- Plant response rating, Bromegrass, Downy [2, 27]: 0
- Plant response rating, Bromegrass, Downy [2, 28]: 30
- Plant response rating, Bromegrass, Downy [2, 29]: 60
- Foxtail, Giant plant response rating [4, 26]: 30
- Plant response rating, Foxtail, Giant [4, 27]: 70
- Plant response rating, Foxtail, Giant [4, 28]: 90
- Plant response rating, Foxtail, Giant [4, 29]: 100
- Goosegrass plant response rating ([5]; 8 g ai/ha): 70
- Goosegrass plant response rating ([5]; 16 g ai/ha): 90
- Plant response rating, Goosegrass [5, 28]: 90
- Plant response rating, Goosegrass [5, 29]: 90
- Morningglory plant response rating ([6]; 8 g ai/ha): 0
- Morningglory plant response rating ([6]; 16 g ai/ha): 0
- Plant response rating, Morningglory [6, 28]: 0
- Plant response rating, Morningglory [6, 29]: 0
- Soybean plant response rating ([7]; 8 g ai/ha): 0
- Soybean plant response rating ([7]; 16 g ai/ha): 0
- Plant response rating, Soybean [7, 28]: 10
- Plant response rating, Soybean [7, 29]: 10
- Surinam Grass plant response rating ([8]; 8 g ai/ha): 60
- Surinam Grass plant response rating ([8]; 16 g ai/ha): 90
- Plant response rating, Surinam Grass [8, 28]: 90
- Plant response rating, Surinam Grass [8, 29]: 100
- Wheat plant response rating ([9]; 8 g ai/ha): 5
- Wheat plant response rating ([9]; 16 g ai/ha): 60
- Plant response rating, Wheat [9, 28]: 90
- Plant response rating, Wheat [9, 29]: 95
- Plant response rating, Barnyardgrass [10, 22]: 0
- Plant response rating, Barnyardgrass [10, 23]: 0
- Plant response rating, Barnyardgrass [10, 24]: 0
- Plant response rating, Barnyardgrass [10, 25]: 0
- Plant response rating, Ducksalad [11, 22]: 0
- Plant response rating, Ducksalad [11, 23]: 0
- Plant response rating, Ducksalad [11, 24]: 0
- Plant response rating, Ducksalad [11, 25]: 0
- Plant response rating, Rice [12, 22]: 0
- Plant response rating, Rice [12, 23]: 0
- Plant response rating, Rice [12, 24]: 0
- Plant response rating, Rice [12, 25]: 0
- Plant response rating, Sedge, Umbrella [13, 22]: 0
- Plant response rating, Sedge, Umbrella [13, 23]: 0
- Plant response rating, Sedge, Umbrella [13, 24]: 0
- Plant response rating, Sedge, Umbrella [13, 25]: 0
